Columns and labels:
A375P cells [1] = assay: ATP assay after 2,4-DNP; format: cell-based; details: 50 μg/mL, 24 h
Protocol: (§1) FIG. 7D are histograms showing the effects of 2,4-DNP (50 μg/mL, 24 h) on ATP in the indicated cell lines in vitro.
(§2) Glucose uptake (relative to total cell numbers) was measured over 24 h as trace [^3H]-deoxyglucose uptake in cells growing in glucose-containing media followed by plate harvest and subsequent analysis on a PerkinElmer® Wallac 1450 Microbeta scintillation counter. Oxygen consumption was measured using XF Flux Analyzer (Seahorse Biosciences) using standard protocols. ATP measurements were conducted using ENLITEN® ATP assay (PROMEGA®) according to standard trichloroacetic acid (TCA) extraction protocols.

UACC257 cells [2] = assay: ATP assay after 2,4-DNP; format: cell-based; details: 50 μg/mL, 24 h
Protocol: as §1, §2

melanoma cells (M14) = assay: Cell number, mitochondrial inhibitors combined with PLX4720; details: in vitro; cell number after 72 hrs
Protocol: (§3) Melanoma cell were treated for 24 h with PLX4720 then mitochondrial uncoupler for 48 h, prior to estimation of cell number.
as §3
(§4) Cell number was calculated using the CYQUANT® assay (INVITROGEN™) or crystal violet staining. Lactate measurements were done using the Lactate Assay (BioVision or SIGMA®) per manufacturer's protocols. Indicated cell lines were plated in complete media overnight. Media was changed to serum free-media to avoid interference with the assay for 16 h with either PLX4720 (3 μM) or PLX4032 (1 μM) or vehicle control prior to harvesting cells and measurement of lactate. Results were normalized to cell number. All assays were performed in logarithmically growing cells.

UACC257 xenografts = assay: Xenograft tumor study; format: in vivo, mice; details: 2,4-DNP 20 mg/kg/day or vemurafenib 75 mg/kg/day by oral gavage
A375P cells [3] = assay: Lactate assay after 2,4-DNP; format: cell-based; details: 50 μg/mL, 24 h
Protocol: (§5) FIG. 7E are histograms showing the effects of 2,4-DNP (50 μg/mL, 24 h) on the lactate levels in the indicated cell lines in vitro.
(§6) Indicated cell lines were plated in complete media overnight. […] Results were normalized to cell number. All assays were performed in logarithmically growing cells.

UACC257 cells [4] = assay: Lactate assay after 2,4-DNP; format: cell-based; details: 50 μg/mL, 24 h
Protocol: as §5, §6

[5] = system: BRAF(V600E)+vector and BRAF(V600E)+MITF melanoma cells; assay: Cell number after 2,4-DNP in isogenic cells; format: cell-based, human; details: 72 h
Protocol: FIG. 7A are histograms showing the number of BRAF(V600E)+vector and BRAF(V600E)+MITF melanoma cells following treatment with 2,4-DNP with indicated dose for 72 h.
as §6

[6] = system: melanoma cells or primary human melanocytes; assay: Cell number after 2,4-DNP, melanoma cells versus melanocytes; format: cell-based; details: 50 μg/mL, 72 h
Protocol: FIG. 13 are histograms showing the number of melanoma cells or primary human melanocytes following treatment with 2,4-DNP (50 μg/mL) for 72 h. **, p<0.01 compared to primary melanocytes treated with 2,4-DNP.
as §6

A375P xenografts = assay: Xenograft tumor study; format: in vivo, mice; details: 2,4-DNP 20 mg/kg/day by oral gavage
Protocol: FIG. 7G are line graphs showing the effect of 2,4-DNP (20 mg/kg/day) or vemurafenib (75 mg/kg/day) on murine melanoma xenografts of A375P cell line (n=7-8 per group). **, p<0.01 compared to vehicle group; ***, p<0.001 compared to vehicle group.
All mouse experiments (tumor nucleation studies and longitudinal drug treatment) were done in accordance with Institutional Animal Care and Use Committee (IACUC) approved animal protocols at Dana-Farber Cancer Institute. Engineered melanoma cells with BRAF(V600E)+vector or +MITF were inoculated subcutaneously at three flank positions (100,000 cells in 100 μL PBS per site) in NCR-FoxNu (male, 6 weeks) animals. Tumor establishment was monitored and experiment was terminated after 10 weeks. For longitudinal tumor treatment studies, melanoma cell lines (A375P and UACC257, both carrying pFUW-mCherry-puro-LUC) were injected subcutaneously into NCR-FoxNu mice (5,000,000 cells in 100 μL PBS with growth factor reduced matrigel). Initial tumor establishment and growth visualized by in vivo imaging by comparing signal obtained seven (7) days apart. […] Treatment with vemurafenib (75 mg/kg/day) or 2,4-DNP (20 mg/kg/day) was administered by oral gavage in 0.5% methyl cellulose and tumor size measured by calipers twice weekly. Mean response measured based on cohorts of 6-7 mice for each arm (and each cell line).

[7] = system: BRAF mutant melanoma cell line UACC62; assay: Electron microscopy, mitochondrial number; format: cell-based; details: 3 μM, 72 hrs
Protocol: Electron microscopy of UACC-62 melanoma cells treated with vehicle or PLX4720 (3 μM, 72 hrs) was performed at Massachusetts General Hospital's PMB Microscopy Core. Cells were fixed for 1 hr at room temp in 2.0% glutaraldehyde in 0.1 M sodium cacodylate buffer, pH 7.4 (Electron Microscopy Sciences, Hatfield, Pa.). Cells were rinsed in buffer, scraped and pelleted. The pellets were treated with 1.0% osmium tetroxide (EMS) in cacodylate buffer for 1 hr at room temp. They were rinsed and then resuspended in 2.0% agarose for ease of handling. Small pieces were dehydrated through a graded series of ethanol, then infiltrated with eponate resin (Ted Pella, Redding, Calif.) overnight at room temp. They were then embedded in resin overnight at 60° C. Thin sections were cut on a Leica UC6 ultramicrotome, collected onto formvar-carbon coated slot grids and post-stained with uranyl acetate and lead citrate. […] Images were collected with an AMT digital imaging system (Advanced Microscopy Techniques, Danvers, Mass.). Mitochondrial density was calculated by morphometrics by standard protocols.

[8] = system: BRAF mutant (UACC-62) melanoma cell line; assay: MITOSOX fluorescence assay; format: cell-based; details: 1 μM, 72 h
Protocol: (§7) MITOTRACKER® Red, Green and MITOSOX™ were obtained from INVITROGEN™ using manufacturer's recommended protocols. Mean fluorescence was determined by FlowJo software and normalized to vehicle-treated cells.

[9] = system: BRAF mutant melanoma M14 cells; assay: PGC1β mRNA time course; format: cell-based; details: over 24 hours
[10] = system: BRAF mutant colon cancer cell lines; assay: PGC1α mRNA by quantitative PCR; format: cell-based; details: two BRAF mutant colon cancer cell lines; 1 μM, 24 h
[11] = system: melanoma cell line that does not contain the BRAF mutation; assay: Lactate assay; format: cell-based; details: melanoma cell line without BRAF mutation; 16 hours
Protocol: (§8) FIG. 1F are histograms showing the lactate levels in media conditioned from the indicated cell lines treated with PLX4720 or vehicle control for 16 hours.
as §4

BRAF mutant melanomas [12] = assay: Lactate assay; format: cell-based; details: all BRAF mutant melanomas evaluated; 16 hours
Protocol: as §8, §4

[13] = system: BRAF mutant colon cancer cell lines; assay: phospho-ERK Western blot; format: cell-based; details: two BRAF mutant colon cancer cell lines; 1 μM, 24 h
Protocol: FIG. 2B are representative Western blots showing the ERK activity in melanoma or colon cancer cells treated with PLX4720 (1 μM) for 24 h.
(§9) Whole cell lysates were prepared in lysis buffer supplemented with protease and phosphatase inhibitors (Roche). Equal amounts of protein were resolved by electrophoresis on gradient gels (Bio-Rad).
(§10) Melanoma biopsies prior and during treatment were sectioned, embedded in paraffin and stained with the phospho-ERK1/2 antibody (Cell Signaling Technology). PLX4720 was used at 1 μM concentration in all assays, whereas control samples were treated with an equal volume of DMSO.

PGC1α promoter = PGC1α promoter luciferase assay; format: cell-based; details: UACC-62 cells; 48 h; wild-type promoter
Protocol: The murine PGC1α promoter was obtained from ADDGENE. Mutant promoters were verified by sequencing. UACC-62 cells were transfected with each promoter construct, pRL-CMV Renilla control and a M-MITF overexpression vector. PLX4720 treatment was for 48 h. Results reported are averages of at least three independent experiments, normalized for transfection efficiency using Renilla luciferase.

[14] = system: BRAF wild-type (MeWo) melanoma cell line; assay: MITOTRACKER Green flow cytometry (mitochondrial density); format: cell-based; details: 1 μM, 72 h
Protocol: as §7

[15] = system: BRAF mutant (UACC-62 and UACC-257) melanoma cell lines; assay: as above; format: cell-based; details: 1 μM, 72 h; two BRAF mutant melanomas
Protocol: as §7

[16] = system: melanoma cell line that does not contain the BRAF mutation; assay: phospho-ERK Western blot; format: cell-based; details: melanoma cell line without BRAF mutation
Protocol: FIG. 1G are representative Western blots showing activated ERK activity in cells of FIG. 1f using phospho-ERK antibodies.
as §9, §10

UACC-257 cells = assay: Pigmentation of cell pellets; format: cell-based; details: 72 h
Description: Equal number of cells was pelleted by centrifugation.

BRAF wild-type melanoma = assay: PGC1α mRNA by quantitative PCR; format: cell-based; details: 1 μM, 24 h
[17] = system: BRAF mutant (UACC-62) melanoma cell line; assay: MITOTRACKER Red flow cytometry; format: cell-based; details: 1 μM, 72 h
Protocol: as §7

[18] = system: melanomas with BRAF mutations; assay: PGC1α mRNA by quantitative PCR; format: cell-based; details: 1 μM, 24 h
BRAF mutant melanomas [19] = assay: Gene set enrichment analysis of melanoma cell lines treated with vemurafenib; format: cell-based; details: PLX4032 treated melanoma cell lines (n = 6)
[20] = system: BRAF(V600E) parental cells; assay: ATP assay in isogenic cells; format: cell-based, human; details: 1 μM, 24 h
Protocol: FIG. 6G are histograms showing the ATP levels, normalized to cell number in BRAF(V600E)+vector and BRAF(V600E)+MITF treated with PLX4032 (1 μM) for 24 h. ***, p<0.001 compared to control cells.
as §2

Structure (SMILES): O=[N+]([O-])c1ccc(O)c([N+](=O)[O-])c1 [2,4-DNP, 2,4-dinitrophenol]
- decrease in ATP (A375P cells [1]): not
- ATP (UACC257 cells [2]): decrease
- Combination Index with PLX4720 (additively enhanced the efficacy of PLX4720) (melanoma cells (M14)): 0.9
- tumor growth (UACC257 xenografts): profoundly inhibited tumor growth
- increases in lactate (A375P cells [3]): not
- lactate (UACC257 cells [4]): increases
- sensitivity of BRAF(V600E)+MITF cells versus BRAF(V600E)+vector cells (cell number) [5]: significantly more sensitive
- sensitivity of melanoma cells compared to primary melanocytes (cell number) [6]: more sensitive to DNP than primary melanocytes, except A375P
- tumor growth (A375P xenografts): insensitive

Structure (SMILES): CCCS(=O)(=O)Nc1ccc(F)c(C(=O)c2c[nH]c3ncc(Cl)cc23)c1F [PLX4720, N-[3-[(5-Chloro-1H-pyrrolo[2,3-b]pyridin-3-yl)carbonyl]-2,4-difluorophenyl]-1-propanesulfonamide]
- number of mitochondria per cell [7]: significant increase
- production of mitochondrial oxidative stress (MITOSOX) [8]: increased
- PGC1β mRNA [9]: no change
- PGC1α expression [10]: no effect
- lactate levels [11]: did not change
- lactate levels (BRAF mutant melanomas [12]): reduced
- ERK phosphorylation [13]: suppression of ERK phosphorylation similar to that seen in melanomas
- activity of PGC1α promoter upstream of luciferase (PGC1α promoter): induction of the wild-type promoter
- mitochondrial density (MITOTRACKER Green) [14]: did not affect
- mitochondrial density (MITOTRACKER Green) [15]: increased
- ERK signaling [16]: inability of PLX4720 to suppress ERK signaling
- pigmentation (UACC-257 cells): increased pigmentation
- expression of PGC1α (BRAF wild-type melanoma): No change
- MITOTRACKER Red fluorescence (mitochondrial activity and mass) [17]: induced
- PGC1α mRNA ([18]; M14 cells, control siRNA): strongly induced
- induction of PGC1α mRNA ([18]; UACC62 cells, control siRNA): 3 fold
- increase in PGC1α mRNA ([18]; all melanomas with BRAF mutations): 3-14 fold

Structure (SMILES): CCCS(=O)(=O)Nc1ccc(F)c(C(=O)c2c[nH]c3ncc(-c4ccc(Cl)cc4)cc23)c1F [vemurafenib]
- ES, CANCERDRUGS_PROBCELL_UP (BRAF mutant melanomas [19]; gene set size 15): −0.6598
- NES, CANCERDRUGS_PROBCELL_UP (BRAF mutant melanomas [19]; gene set size 15): −1.791
- ES, CAMPTOTHECIN_PROBCELL_UP (BRAF mutant melanomas [19]; gene set size 17): −0.6506
- NES, CAMPTOTHECIN_PROBCELL_UP (BRAF mutant melanomas [19]; gene set size 17): −1.802
- ES, ATP_SYNTHESIS (BRAF mutant melanomas [19]; gene set size 19): −0.6141
- ES, FLAGELLAR_ASSEMBLY (BRAF mutant melanomas [19]; gene set size 19): −0.6141
- ES, TYPE_III_SECRETION_SYSTEM (BRAF mutant melanomas [19]; gene set size 19): −0.6141
- NES, ATP_SYNTHESIS (BRAF mutant melanomas [19]; gene set size 19): −1.75
- NES, FLAGELLAR_ASSEMBLY (BRAF mutant melanomas [19]; gene set size 19): −1.8
- NES, TYPE_III_SECRETION_SYSTEM (BRAF mutant melanomas [19]; gene set size 19): −1.739
- ES, CITRATE_CYCLE_TCA_CYCLE (BRAF mutant melanomas [19]; gene set size 20): −0.8827
- ES, PHOTOSYNTHESIS (BRAF mutant melanomas [19]; gene set size 20): −0.6181
- NES, CITRATE_CYCLE_TCA_CYCLE (BRAF mutant melanomas [19]; gene set size 20): −2.017
- NES, PHOTOSYNTHESIS (BRAF mutant melanomas [19]; gene set size 20): −1.797
- ES, BRENTANI_TRANSPORT_OF_VESICLES (BRAF mutant melanomas [19]; gene set size 23): −0.604
- NES, BRENTANI_TRANSPORT_OF_VESICLES (BRAF mutant melanomas [19]; gene set size 23): −1.772
- ES, HSA00020_CITRATE_CYCLE (BRAF mutant melanomas [19]; gene set size 25): −0.6303
- NES, HSA00020_CITRATE_CYCLE (BRAF mutant melanomas [19]; gene set size 25): −1.94
- ES, HSA00640_PROPANOATE_METABOLISM (BRAF mutant melanomas [19]; gene set size 29): −0.5472
- NES, HSA00640_PROPANOATE_METABOLISM (BRAF mutant melanomas [19]; gene set size 29): −1.733
- ES, VALINE_LEUCINE_AND_ISOLEUCINE_DEGRADATION (BRAF mutant melanomas [19]; gene set size 35): −0.5231
- NES, VALINE_LEUCINE_AND_ISOLEUCINE_DEGRADATION (BRAF mutant melanomas [19]; gene set size 35): −1.732
- ES, HSA000280_VALINE_LEUCINE_AND_ISOLEUCINE_DEGRADATION (BRAF mutant melanomas [19]; gene set size 42): −0.5627
- NES, HSA000280_VALINE_LEUCINE_AND_ISOLEUCINE_DEGRADATION (BRAF mutant melanomas [19]; gene set size 42): −1.945
- ES, OXIDATIVE_PHOSPHORYLATION (BRAF mutant melanomas [19]; gene set size 55): −0.5114
- NES, OXIDATIVE_PHOSPHORYLATION (BRAF mutant melanomas [19]; gene set size 55): −1.891
- ES, HSA00190_OXIDATIVE_PHOSPHORYLATION (BRAF mutant melanomas [19]; gene set size 100): −0.4531
- NES, HSA00190_OXIDATIVE_PHOSPHORYLATION (BRAF mutant melanomas [19]; gene set size 100): −1.845
- ES, PENG_GLUTAMINE_UP (BRAF mutant melanomas [19]; gene set size 227): −0.3896
- NES, PENG_GLUTAMINE_UP (BRAF mutant melanomas [19]; gene set size 227): −1.777
- drop in ATP [20]: 42%
